Like-named read-outs stand apart in the source and are kept apart here.
Tests used:
[1] = tested on: volunteers with CUD; assay: Phase 2a study, plasma steroids, endocannabinoids, THC and metabolites; format: in vivo, human
Method: THC and its metabolites (11-OH-THC and 11-COOH-THC) were assessed at the same timepoints. […] THC and its metabolites analyses were performed using PD dataset (n = 13 for both doses).
PK parameters for AEF0117 were subject to descriptive statistics separately for each treatment group.
ALLO, DHEA, PREG and TESTO, as well as AEA and 2-AG, were measured. Data were analyzed using a global crossover MRMM analysis on the PD dataset (n = 13 per dose cohort).

[2] = tested on: rats; assay: Respiration in unrestrained conscious rats (GLP)
[3] = Plasma and brain pharmacokinetics of oral AEF0117 in mice; format: in vivo; settings: mouse; for Kp: brain/plasma
Method: Blood samples were centrifuged within 15 min after collection (~7 min at 1,600g and 4 °C) to obtain plasma. The brain was also harvested, weighed and frozen on dry ice. Plasma and brains were stored below −70 °C until analysis.

[4] = tested on: volunteers with CUD; assay: Phase 2a study, safety; format: in vivo, human
Description: Data from the first dose level were reviewed by the Data Safety Monitoring Board before ascending to the next dose level.
On day 6 of each period, before discharge from the research center, participants had sitting blood pressure and pulse rate measurements, clinical laboratory tests (chemistry, hematology and urinalysis) and body weight taken. The study start date was 23 October 2018; primary completion date was 31 July 2020; and actual study completion date was 1 January 2021. After the second study phase, participants were contacted 28 d after discharge so that we could inquire about the occurrence of any serious AEs (including pregnancies) that may have occurred since leaving the research site.

[5] = Plasma and brain pharmacokinetics/toxicokinetics in rats; format: in vivo; settings: for AUC(0-t) / Cmax / half-life / Tmax: rat, plasma; for AUC(0-t) / Cmax / half-life: po
Method: Blood samples were obtained from catheterized animals housed in Culex cages with an automated blood sampler—a robotic system designed to facilitate the sampling of whole blood from awake and freely moving rodents. At the last withdrawal timepoint (48 h after dosing), blood aliquots were manually collected from the femoral catheter. This experiment was performed by the CRO Oncodesign.
Blood was withdrawn by cardiac puncture, and the brains were harvested.
In both experiments, blood samples were centrifuged ~7 min at 1,600g (4 °C), and the plasma was collected. The brain was weighed and frozen on dry ice. Plasma and brain were stored below −70 °C until analysis.
For all studies in rats and the 91-d toxicity study in dogs, the timepoints on days 1, 28 and 91 were: before dose and 1, 3, 5, 8 and 24 h after dose. For the 28-d toxicity study in dogs, the timepoints on days 1 and 28 were: before dose and 1, 2, 4, 8, and 24 h after dose. In both species, only mean pre-dose plasma concentrations were calculated on day 14 for the 28-d study and on day 28 for the 91-d study. For the experiments in rats, blood samples for drug analysis were taken from the satellite animals used for the toxicokinetic (TK) analysis (n = 3 per sex per timepoint and per group). For experiments performed in dogs, blood samples were drawn from the cephalic or jugular veins of all animals (n = 3 per sex per group).
TK analysis was performed separately per sex on mean concentrations by a non-compartmental analysis (NCA). The linearity of exposure was evaluated by comparison of the AUC/dose and Cmax/dose ratios. Possible accumulation was evaluated from the ratio of AUC on day 28 and on day 1 for each dose level and each sex. Samples lower than the limit of quantification (LLQ) values (that is, < 8.00 ng ml^−1 in rats and <20.0 ng ml^−1 in dogs) were not included in the calculation of TK parameters.

[6] = tested on: rats; assay: THC-induced dopamine release in nucleus accumbens (microdialysis); format: in vivo; settings: 15 µg kg^−1 oral
[7] = both sexes, CD-1 Swiss, plasma, mice po 0.3 mg/kg single
[8] = both sexes, CD-1 Swiss, plasma, mice po 4 mg/kg single
[9] = both sexes, CD-1 Swiss, plasma, mice po 10 mg/kg single
[10] = Sprague Dawley, 1.6 mg/kg, rats po 1.6 mg/kg single
[11] = both sexes, Sprague Dawley SPF, 20 mg/kg, rats po 20 mg/kg single, 91-day tox study
[12] = both sexes, Sprague Dawley SPF, 36 mg/kg, rats po 36 mg/kg single, 28-day tox study
[13] = both sexes, Sprague Dawley SPF, 65 mg/kg, rats po 65 mg/kg single, 91-day tox study
[14] = both sexes, Sprague Dawley, 2 mg/kg, rats po 2 mg/kg single, 28-day tox study
[15] = both sexes, Sprague Dawley, 2 mg/kg, rats po 2 mg/kg single, 91-day tox study

## COc1ccc(CO[C@H]2CC[C@@]3(C)C(=CC[C@H]4[C@@H]5CC[C@H](C(C)=O)[C@@]5(C)CC[C@@H]43)C2)cc1 [AEF0117, 3β-(4-methoxybenzyloxy)pregn-5-en-20-one]
[1]
  plasma THC and its metabolites, AEF0117 vs placebo periods: no statistically significant differences
[2]
  adverse effects on respiration: did not show any adverse effects
[3]; CD-1 Swiss (mice), Sprague Dawley (rats), brain, oral, mice and rats, read-out: tmax in the brain
  Tmax: 7 h
[3]; CD-1 Swiss (mice), Sprague Dawley (rats), po, mice and rats, oral, corn oil, read-out: brain/plasma concentration AUC ratio
  Kp: > 4
[3]; CD-1 Swiss (mice), Sprague Dawley (rats), Beagle (dogs), plasma, po, mice, rats and dogs, single per os, read-out: tmax
  Tmax: ~3 h
[3]; both sexes, CD-1 Swiss, oral, 0.3 mg/kg, read-out: AUClast brain/plasma ratio
  Kp: 7.3
[3]; both sexes, CD-1 Swiss, plasma, po, mice per os, read-out: half-life
  half-life: 10.1 to 25.6 h
[3]; [7]
  AUC(0-t): 252 ng·h/mL
  Cmax: 35.5 ng/mL
[3]; both sexes, CD-1 Swiss, plasma, mice po 0.3 mg/kg single, read-out: tmax
  Tmax: 2.5 h
[3]; both sexes, CD-1 Swiss, plasma, mice po 0.3 mg/kg single, read-out: t½ (converted)
  half-life: 17.8 h
[3]; [8]
  AUC(0-t): 3730 ng·h/mL
  Cmax: 490 ng/mL
[3]; both sexes, CD-1 Swiss, plasma, mice po 4 mg/kg single, read-out: tmax
  Tmax: 2.25 h
[3]; both sexes, CD-1 Swiss, plasma, mice po 4 mg/kg single, read-out: t½ (converted)
  half-life: 18.3 h
[3]; [9]
  AUC(0-t): 11300 ng·h/mL
  Cmax: 1790 ng/mL
[3]; both sexes, CD-1 Swiss, plasma, mice po 10 mg/kg single, read-out: tmax
  Tmax: 2.25 h
[3]; both sexes, CD-1 Swiss, plasma, mice po 10 mg/kg single, read-out: t½ (converted)
  half-life: 18.2 h
[3]; both sexes, CD-1 Swiss, plasma, mice, oral, corn oil, read-out: Tmax
  Tmax: 3 h
[4]; 0.06 mg/d 5 d
  Number of TEAEs: 9 E
  Number of participants with a TEAE leading to discontinuation: 0 n (%)
  Number of participants with an SAE: 0 n (%)
  Number of participants with at least one TEAE: 6 (42.9) n (%)
  Participants with TEAE: Mild: 6 (42.9) n (%)
  Participants with TEAE: Moderate: 0 n (%)
  Participants with TEAE: Not related: 2 (14.3) n (%)
  Participants with TEAE: Related: 6 (42.9) n (%)
  Participants with TEAE: Severe: 0 n (%)
  TEAEs by SOC: Cardiac disorders: 1 (7.1) n (%)
  TEAEs by SOC: Ear and labyrinth disorders: 0 n (%)
  TEAEs by SOC: Gastrointestinal disorders: 0 n (%)
  TEAEs by SOC: General disorders and administration site conditions: 1 (7.1) n (%)
  TEAEs by SOC: Infections and infestations: 0 n (%)
  TEAEs by SOC: Injury, poisoning and procedural complications: 0 n (%)
  TEAEs by SOC: Investigations: 3 (21.4) n (%)
  TEAEs by SOC: Musculoskeletal and connective tissue disorders: 0 n (%)
  TEAEs by SOC: Nervous system disorders: 3 (21.4) n (%)
  TEAEs by SOC: Psychiatric disorders: 0 n (%)
  TEAEs by SOC: Renal and urinary disorders: 0 n (%)
  TEAEs by SOC: Respiratory, thoracic and mediastinal disorders: 1 (7.1) n (%)
  TEAEs by SOC: Skin and subcutaneous tissue disorders: 0 n (%)
[4]; 1 mg/d 5 d
  Number of TEAEs: 24 E
  Number of participants with a TEAE leading to discontinuation: 1 (6.7) n (%)
  Number of participants with an SAE: 0 n (%)
  Number of participants with at least one TEAE: 8 (53.3) n (%)
  Participants with TEAE: Mild: 8 (53.3) n (%)
  Participants with TEAE: Moderate: 1 (6.7) n (%)
  Participants with TEAE: Not related: 1 (6.7) n (%)
  Participants with TEAE: Related: 8 (53.3) n (%)
  Participants with TEAE: Severe: 1 (6.7) n (%)
  TEAEs by SOC: Cardiac disorders: 0 n (%)
  TEAEs by SOC: Ear and labyrinth disorders: 0 n (%)
  TEAEs by SOC: Gastrointestinal disorders: 4 (26.7) n (%)
  TEAEs by SOC: General disorders and administration site conditions: 0 n (%)
  TEAEs by SOC: Infections and infestations: 0 n (%)
  TEAEs by SOC: Injury, poisoning and procedural complications: 2 (13.3) n (%)
  TEAEs by SOC: Investigations: 2 (13.3) n (%)
  TEAEs by SOC: Musculoskeletal and connective tissue disorders: 2 (13.3) n (%)
  TEAEs by SOC: Nervous system disorders: 3 (20.0) n (%)
  TEAEs by SOC: Psychiatric disorders: 2 (13.3) n (%)
  TEAEs by SOC: Renal and urinary disorders: 0 n (%)
  TEAEs by SOC: Respiratory, thoracic and mediastinal disorders: 0 n (%)
  TEAEs by SOC: Skin and subcutaneous tissue disorders: 1 (6.7) n (%)
[5]; [10]
  AUC(0-t): 1060 ng·h/mL
  Cmax: 116 ng/mL
[5]; Sprague Dawley, 1.6 mg/kg, rats po 1.6 mg/kg single, read-out: t½ (converted)
  half-life: 13.9 h
[5]; Sprague Dawley, rats per os, read-out: half-life
  half-life: 7.3 to 15.8 h
[5]; Sprague Dawley, rats po 1.6 mg/kg single
  Tmax: 4.1 h
[5]; Sprague Dawley, rats, oral, corn oil
  Tmax: 3 h
[5]; both sexes, Sprague Dawley SPF, 9 mg/kg, rats po 9 mg/kg single, 28-day tox study
  AUC(0-t): 6150 ng·h/mL
[5]; both sexes, Sprague Dawley SPF, 9 mg/kg, rats po 9 mg/kg single, 28-day tox study, read-out: t½ (converted)
  half-life: 11.7 h
[5]; [11]
  AUC(0-t): 12700 ng·h/mL
  Cmax: 1060 ng/mL
[5]; both sexes, Sprague Dawley SPF, 20 mg/kg, rats po 20 mg/kg single, 91-day tox study, read-out: t½ (converted)
  half-life: 7.6 h
[5]; [12]
  AUC(0-t): 16500 ng·h/mL
  Cmax: 2060 ng/mL
[5]; both sexes, Sprague Dawley SPF, 36 mg/kg, rats po 36 mg/kg single, 28-day tox study, read-out: t½ (converted)
  half-life: 9.8 h
[5]; [13]
  AUC(0-t): 18200 ng·h/mL
  Cmax: 1660 ng/mL
[5]; both sexes, Sprague Dawley SPF, 65 mg/kg, rats po 65 mg/kg single, 91-day tox study, read-out: t½ (converted)
  half-life: 10.4 h
[5]; both sexes, Sprague Dawley SPF, rats po 9 mg/kg single, 28-day tox study
  Tmax: 3 h
[5]; both sexes, Sprague Dawley SPF, rats po 20 mg/kg single, 91-day tox study
  Tmax: 3 h
[5]; both sexes, Sprague Dawley SPF, rats po 36 mg/kg single, 28-day tox study
  Tmax: 3 h
[5]; both sexes, Sprague Dawley SPF, rats po 65 mg/kg single, 91-day tox study
  Tmax: 3 h
[5]; [14]
  AUC(0-t): 1450 ng·h/mL
  Cmax: 106 ng/mL
[5]; both sexes, Sprague Dawley, 2 mg/kg, rats po 2 mg/kg single, 28-day tox study, read-out: t½ (converted)
  half-life: 8 h
[5]; [15]
  AUC(0-t): 1210 ng·h/mL
  Cmax: 86.3 ng/mL
[5]; both sexes, Sprague Dawley, 2 mg/kg, rats po 2 mg/kg single, 91-day tox study, read-out: t½ (converted)
  half-life: 7.7 h
[5]; both sexes, Sprague Dawley, 9 mg/kg, rats po 9 mg/kg single, 28-day tox study
  Cmax: 578 ng/mL
[5]; both sexes, Sprague Dawley, rats po 2 mg/kg single, 28-day tox study
  Tmax: 4 h
[5]; rats and dogs, repeated administration
  time to steady state: approximately 14 days
[6]
  THC-induced increase in Nac extracellular dopamine: inhibited

From paper PMC10287566, “Signaling-specific inhibition of the CB1 receptor for cannabis use disorder: phase 1 and phase 2a randomized trials” (Nature Medicine, 2023)
